These results are taken from ChEMBL document CHEMBL5584224, “Recent advances in c-Met-based dual inhibitors in the treatment of cancers” (Eur J Med Chem, 2024).

pIC50: −log10 of the molar value.

Test [1] has as its target Fibroblast growth factor receptor 1 (Homo sapiens, UniProt P11362). Description: Inhibition of FGFR1 (unknown origin).
Test [2] deals with Fibroblast growth factor receptor 2 (Homo sapiens, UniProt P21802). Nature of the test: Inhibition of FGFR2 (unknown origin).
Test [3] has as its target Fibroblast growth factor receptor 3 (Homo sapiens, UniProt P22607). Nature of the test: Inhibition of FGFR3 (unknown origin).
Another test deals with MKN-45. Nature of the test: Antiproliferative activity against human MKN-45 cells assessed as cell growth inhibition incubated for 48 hrs by MTT assay. The class given is functional, cell-based. Conditions: MKN-45, 48 h.
For a further test, the system named is MHCC97H. Nature of the test: Antiproliferative activity against human MHCC97H cells assessed as cell growth inhibition incubated for 48 hrs by MTT assay. The format is functional, cell-based.
In test [4] the test system is HepG2. Description: Antiproliferative activity against human HepG2 cells assessed as reduction in cell viability incubated for 72 hrs by MTT assay. Conditions: HepG2, 72 h. The format is functional, cell-based. (Tetrazolium dyes change colour on reduction, which living cells bring about.)
The subject of test [5] is HepG2. Nature of the test: Antitumor activity against human HepG2 cells xenografted in mouse model assessed as tumor growth inhibition at 16 mg/kg/day for 7 days relative to control. The class given is functional. More on the design: scale not given: the % may be the effect or the level left. The conditions noted are these: time 7 day.
For test [6], the system named is HepG2. Description: Antitumor activity against human HepG2 cells xenografted in mouse model assessed as tumor growth inhibition at 48 mg/kg/day for 7 days relative to control. Set-up: scale not given: the % may be the effect or the level left. The conditions noted are these: time 7 day. The class given is functional. Background: A xenograft is tissue or cells of one species grown in another, often human tumour cells in immunodeficient mice.

The next test deals with HCCLM3. Nature of the test: Cytotoxicity against human HCCLM3 cells assessed as cell growth inhibition incubated for 48 hrs by MTT assay. The format is functional, cell-based. Conditions: HCCLM3, 48 h.
In another test the test system is NCI-H322M. Nature of the test: Antiproliferative activity against human NCI-H322M cells assessed as cell growth inhibition incubated for 72 hrs by MTT assay. The format is functional, cell-based.
For the next test, the system named is A549. Nature of the test: Antiproliferative activity against human A549 cells assessed as reduction in cell viability incubated for 24 hrs by MTT assay. The class given is functional, cell-based. Conditions: A549, 24 h.

Chain of Fibroblast growth factor receptor 1 (P11362 whole entry): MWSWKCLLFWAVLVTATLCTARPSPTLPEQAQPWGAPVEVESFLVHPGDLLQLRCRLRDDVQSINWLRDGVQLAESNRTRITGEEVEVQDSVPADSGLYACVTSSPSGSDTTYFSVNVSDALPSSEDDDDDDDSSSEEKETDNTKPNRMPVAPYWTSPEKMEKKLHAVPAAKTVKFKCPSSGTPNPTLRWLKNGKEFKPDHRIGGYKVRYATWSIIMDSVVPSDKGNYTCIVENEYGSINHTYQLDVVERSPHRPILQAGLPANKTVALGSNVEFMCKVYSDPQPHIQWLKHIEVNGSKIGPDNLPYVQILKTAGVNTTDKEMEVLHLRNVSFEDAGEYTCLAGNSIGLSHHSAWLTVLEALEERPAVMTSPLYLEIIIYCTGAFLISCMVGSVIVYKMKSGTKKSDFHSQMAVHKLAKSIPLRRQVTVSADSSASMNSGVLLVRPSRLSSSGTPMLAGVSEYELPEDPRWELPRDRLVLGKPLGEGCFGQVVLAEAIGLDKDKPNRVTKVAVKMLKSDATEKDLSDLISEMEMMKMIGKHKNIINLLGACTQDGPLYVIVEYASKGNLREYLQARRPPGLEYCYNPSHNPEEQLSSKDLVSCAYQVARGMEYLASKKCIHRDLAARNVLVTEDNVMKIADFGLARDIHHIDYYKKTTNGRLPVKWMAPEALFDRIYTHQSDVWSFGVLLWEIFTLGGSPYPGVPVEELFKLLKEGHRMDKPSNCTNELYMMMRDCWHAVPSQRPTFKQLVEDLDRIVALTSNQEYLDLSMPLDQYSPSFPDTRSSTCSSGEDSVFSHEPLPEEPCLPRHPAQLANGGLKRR
Chain of Fibroblast growth factor receptor 3 (P22607 whole entry): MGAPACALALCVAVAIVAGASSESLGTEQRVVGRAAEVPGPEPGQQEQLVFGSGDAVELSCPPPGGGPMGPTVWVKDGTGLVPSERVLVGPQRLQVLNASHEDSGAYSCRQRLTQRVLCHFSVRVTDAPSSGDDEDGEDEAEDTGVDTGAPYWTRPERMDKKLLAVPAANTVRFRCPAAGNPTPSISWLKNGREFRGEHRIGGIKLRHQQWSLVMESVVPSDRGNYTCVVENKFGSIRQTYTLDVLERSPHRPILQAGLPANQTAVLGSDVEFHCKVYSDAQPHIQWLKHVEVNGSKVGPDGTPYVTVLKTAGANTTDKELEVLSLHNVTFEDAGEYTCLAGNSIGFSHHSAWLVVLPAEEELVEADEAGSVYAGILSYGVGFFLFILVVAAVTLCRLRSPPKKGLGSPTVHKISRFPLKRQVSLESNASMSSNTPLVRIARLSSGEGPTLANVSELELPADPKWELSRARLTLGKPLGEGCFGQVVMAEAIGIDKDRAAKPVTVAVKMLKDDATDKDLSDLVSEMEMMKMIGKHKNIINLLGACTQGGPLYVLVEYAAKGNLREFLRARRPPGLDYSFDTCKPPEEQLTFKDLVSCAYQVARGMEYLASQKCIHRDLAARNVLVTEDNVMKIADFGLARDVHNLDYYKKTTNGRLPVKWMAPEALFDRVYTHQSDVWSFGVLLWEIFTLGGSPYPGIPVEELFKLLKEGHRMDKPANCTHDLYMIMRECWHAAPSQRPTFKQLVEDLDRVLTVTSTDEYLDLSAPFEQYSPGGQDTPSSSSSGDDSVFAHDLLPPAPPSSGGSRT
Chain of Fibroblast growth factor receptor 2 (P21802 whole entry): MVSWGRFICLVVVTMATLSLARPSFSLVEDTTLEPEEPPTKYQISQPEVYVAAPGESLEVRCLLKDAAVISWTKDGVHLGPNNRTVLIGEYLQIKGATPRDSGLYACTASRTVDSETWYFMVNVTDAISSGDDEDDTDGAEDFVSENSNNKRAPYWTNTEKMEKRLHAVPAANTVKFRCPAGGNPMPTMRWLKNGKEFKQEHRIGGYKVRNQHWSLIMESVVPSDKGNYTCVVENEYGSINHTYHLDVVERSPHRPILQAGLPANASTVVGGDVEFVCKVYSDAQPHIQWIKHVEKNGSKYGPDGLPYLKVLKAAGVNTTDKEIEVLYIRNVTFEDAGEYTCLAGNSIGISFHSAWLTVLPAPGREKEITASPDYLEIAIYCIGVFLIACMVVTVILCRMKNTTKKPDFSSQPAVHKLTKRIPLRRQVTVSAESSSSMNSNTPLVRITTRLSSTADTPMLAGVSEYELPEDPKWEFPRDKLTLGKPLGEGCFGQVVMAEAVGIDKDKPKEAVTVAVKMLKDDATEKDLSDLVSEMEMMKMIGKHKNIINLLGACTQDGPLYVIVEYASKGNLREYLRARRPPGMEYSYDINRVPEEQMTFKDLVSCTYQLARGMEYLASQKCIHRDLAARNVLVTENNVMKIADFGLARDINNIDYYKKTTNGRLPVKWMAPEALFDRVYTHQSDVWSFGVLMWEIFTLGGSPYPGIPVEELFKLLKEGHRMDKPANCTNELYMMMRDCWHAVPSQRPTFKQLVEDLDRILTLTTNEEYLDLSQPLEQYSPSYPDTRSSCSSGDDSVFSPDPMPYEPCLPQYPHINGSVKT

As usually defined, the pIC50 is the negative decadic logarithm of the IC50, by convention in mol/L. Take `O=C1Nc2ccc(CN3C(=O)CSC3=O)cc2/C1=C/c1cc(CN2CCOCC2)c[nH]1`: the results for the pIC50 in [1], in test [2] and in test [3] were 7.74, 7.77 and 7.82, respectively.

On to `[2H][C@@](C)(c1cccc(-c2ncc(OCC3CCN(C)CC3)cn2)c1)n1nc(-c2cccc(C#N)c2)ccc1=O`, for which the pIC50 in the test with MKN-45 is 9.00; in the test with MHCC97H, 8.37.

`Cc1ccccc1NS(=O)(=O)c1ccc2c(c1)/C(=C/c1nc3ccccc3[nH]1)C(=O)N2.Cl`: in the test on HepG2 [4], the negative logarithm of the IC50 (pIC50) is 5.83. The Activity with HepG2 [5] and with HepG2 [6] was 65.2% each time.

Take `CN(C)CCC[Se]c1cnc(-c2cccc(Cn3nc(-c4cccc(C#N)c4)ccc3=O)c2)nc1`: the pIC50 in the test with HCCLM3 was 7.89.

Regarding `C/C=C(/C=O)[C@@H](CC=O)CC(=O)OCCc1ccc(O)cc1` [(-)-OLEOCANTHAL], the pIC50 with NCI-H322M is 4.58; in the test with A549 it was 5.00.
